Measurements as given in US8309726B2, “Substituted piperazine compounds of formula 8” (Council of Scientific & Industrial Research, priority 2007, dated 2012).

How the values were obtained:
Breast cancer cell lines = assay: In vitro cytotoxicity, breast panel; type: cell-based; conditions: Homo sapiens, average of six to nine different cancer cell lines, 48 h, SRB, read-out: Log GI50 (concentration in mol/L causing 50% growth inhibition) (converted)
Description: (§1) In vitro evaluation of cytotoxic activity: Compounds were evaluated for in vitro anticancer activity against sixty human tumour cells derived from nine cancer types (colon, prostate, oral, lung, cervix and breast cancer) as shown in (Table 1, 2 and 3) 8b, 8c, 8d, and 8e, were evaluated for in vitro anticancer activity against sixty human tumour cells derived from nine cancer types (leukemia, non-small-cell lung, colon, CNS, melanoma, ovarian, prostate, and breast cancer) as shown in (Table 2 and 3). For the compound, dose response curves for each cell line were measured at a minimum of five concentrations at 10 fold dilutions. A protocol of 48 h continuous drug exposure was used and a sulforhodamine B (SRB) protein assay was used to estimate cell viability or growth. The concentration causing 50% cell growth inhibition (GI50), total cell growth inhibition (TGI 0% growth) and 50% cell death (LC50, −50% growth) compared with the control was calculated. The mean graph midpoint values of log10 TGI and log10 LC50 as well as log10 GI50 for 8a, 8b, 8c, 8d, and 8e, are listed in (Table 2 and 3).
(§2) Each cancer type represents the average of six to nine different cancer cell lines. The compounds 8a, 8b, 8c, 8d, 8e and 8f were evaluated for in vitro anticancer activity against sixty human tumour cells derived from nine cancer types (leukemia, colon, prostate, renal melanoma CNS, lung, cervix and breast cancer) as shown in Table 3. Compounds 8b, 8c, 8d and 8e show promising cytotoxicity against some cancer cell lines (Table 2). Compounds 8b, 8c, 8d and 8e have been evaluated for their in vitro cytotoxicity in selected human cancer cell lines of colon (Colo205), lung (Hop-62), cervix (SiHa), prostate (DU145, PC3), oral (DWD, HT1080), and breast (MCF7, Zr-75-1) origin. A protocol of 48 h continuous drug exposure has been used and an […] has been used to estimate cell viability or growth. The results are expressed as percent of cell growth determined relative to that of untreated control cells. […] In the breast cancer panel, the growth of BT-549, MCF-7 cell lines are 10.3, and 17.6. In the prostate cancer panel, the growth of DU-145, PC-3 cell lines are 11.3, and 19.2. The GI50 values of compound In the CNS cancer panel, the growth of SF-539, SNB-75 cell lines are […]. […] In vitro cytotoxicity of compounds 8a, and 8b in selected cancer cell lines has been illustrated in Table 3. The average GI50 values for each cancer panel of compounds 8b, 8c, 8d and 8e have been illustrated in above Table 2 and 3

Renal cancer cell lines = assay: In vitro cytotoxicity, renal panel; type: cell-based; conditions: Homo sapiens, average of six to nine different cancer cell lines, 48 h, SRB, read-out: Log GI50 (concentration in mol/L causing 50% growth inhibition) (converted)
Description: as §1, §2

[1] = system: Leukemia cancer cell lines; assay: In vitro cytotoxicity, leukemia panel; type: cell-based; conditions: Homo sapiens, average of six to nine different cancer cell lines, 48 h, SRB, read-out: Log GI50 (concentration in mol/L causing 50% growth inhibition) (converted)
Description: as §1, §2

[2] = system: Prostate cancer cell lines; assay: In vitro cytotoxicity, prostate panel; type: cell-based; conditions: Homo sapiens, average of six to nine different cancer cell lines, 48 h, SRB, read-out: Log GI50 (concentration in mol/L causing 50% growth inhibition) (converted)
Description: as §1, §2

[3] = system: Melanoma cancer cell lines; assay: In vitro cytotoxicity, melanoma panel; type: cell-based; conditions: Homo sapiens, average of six to nine different cancer cell lines, 48 h, SRB, read-out: Log GI50 (concentration in mol/L causing 50% growth inhibition) (converted)
Description: as §1, §2

[4] = system: Ovarian cancer cell lines; assay: In vitro cytotoxicity, ovarian panel; type: cell-based; conditions: Homo sapiens, average of six to nine different cancer cell lines, 48 h, SRB, read-out: Log GI50 (concentration in mol/L causing 50% growth inhibition) (converted)
Description: as §1, §2

[5] = system: renal and prostate cancer panels; assay: In vitro cytotoxicity, renal and prostate cancer panels; type: cell-based; conditions: Homo sapiens; range over renal and prostate cancer panels
Description: (§3) In vitro evaluation of cytotoxic activity: Compounds were evaluated for in vitro anticancer activity against sixty human tumour cells derived from nine cancer types (colon, prostate, oral, lung, cervix and breast cancer) as shown in (Table 1, 2 and 3) 8b, 8c, 8d, and 8e, were evaluated for in vitro anticancer activity against sixty human tumour cells derived from nine cancer types (leukemia, non-small-cell lung, colon, CNS, melanoma, ovarian, prostate, and breast cancer) as shown in (Table 2 and 3). For the compound, dose response curves for each cell line were measured at a minimum of five concentrations at 10 fold dilutions. […]
(§4) Each cancer type represents the average of six to nine different cancer cell lines. The compounds 8a, 8b, 8c, 8d, 8e and 8f were evaluated for in vitro anticancer activity against sixty human tumour cells derived from nine cancer types (leukemia, colon, prostate, renal melanoma CNS, lung, cervix and breast cancer) as shown in Table 3. […] Compounds 8b, 8c, 8d and 8e have been evaluated for their in vitro cytotoxicity in selected human cancer cell lines of colon (Colo205), lung (Hop-62), cervix (SiHa), prostate (DU145, PC3), oral (DWD, HT1080), and breast (MCF7, Zr-75-1) origin. […] The results are expressed as percent of cell growth determined relative to that of untreated control cells. […]

calf thymus (CT) DNA = assay: Thermal denaturation studies with duplex-form calf thymus DNA; type: binding; conditions: for ΔTm (° C.) after incubation at 37° C. for 0 h / ΔTm (° C.) after incubation at 37° C. for 18 h / ΔTm (° C.) after incubation at 37° C. for 36 h: [ANCD]/[DNA] molar ratio 1:5, CT-DNA 100 μM, ligand 20 μM, sodium phosphate buffer pH 7.00; for ΔTm (° C.) after incubation at 37° C. for 0 h: 0 h at 37° C.; for ΔTm (° C.) after incubation at 37° C. for 18 h: 18 h at 37° C.; for ΔTm (° C.) after incubation at 37° C. for 36 h: 36 h at 37° C.; for Course of ΔTm over incubation at 0 hr, 18 hr and 36 hr: incubation at 37° C., [ANCD]/[DNA] 1:5
Description: Compounds were subjected to thermal denaturation studies with duplex-form calf thymus DNA (CT-DNA) using an adaptation of a reported procedure. Working solutions in aqueous buffer (10 mM NaH2PO4/Na2HPO4, 1 mM Na2EDTA, pH 7.00+/−0.01) containing CT-DNA (100 μM in phosphate) and the PBD (20 μM) were prepared by addition of concentrated ANCD solutions in DMSO to obtain a fixed [ANCD]/[DNA] molar ratio of 1:5. The DNA-ANCD solutions were incubated at 37° C. for 0, 18, and 36 h prior to analysis. Samples were monitored at 260 nm using a Beckman DU-7400 spectrophotometer fitted with high performance temperature controller, and heating was applied at 1° C. min^−1 in the 40-90° C. range. DNA helix coil transition temperatures (Tm) were obtained from the maxima in the (dA260)/dT derivative plots. Results are given as the mean+/−standard deviation from three determinations and are corrected for the effects of DMSO co-solvent using a linear correction term. Drug-induced alterations in DNA melting behaviour are given by: ΔTm=Tm (DNA+ANCD)−Tm (DNA alone), where the Tm value for the ANCD-free CT-DNA is 69.0+/−0.01.

[6] = system: HCT-116 cell line (colon cancer); assay: In vitro cytotoxicity, HCT-116; type: cell-based; conditions: Homo sapiens; colon cancer HCT-116
Description: as §3, §4

[7] = system: T47D cell line (breast cancer); assay: In vitro cytotoxicity, T47D; type: cell-based; conditions: Homo sapiens, breast cancer cell panel
Description: as §3, §4

human tumour cell lines = assay: In vitro anticancer activity against sixty human tumour cell lines (NCI, SRB assay); type: cell-based; conditions: for Log10LC50 mean graph midpoint (MG_MID): 50% cell death; for Log10LC50 mean graph midpoint (MG_MID) / Log10GI50 mean graph midpoint (MG_MID) / Log10TGI50 mean graph midpoint (MG_MID): 48 h continuous drug exposure, SRB assay; for Log10GI50 mean graph midpoint (MG_MID): 50% cell growth inhibition; for GI50: Homo sapiens; for antiproliferative activity: against most of the tested cell lines; for Log10TGI50 mean graph midpoint (MG_MID): total cell growth inhibition
Description: as §1, §2

[8] = system: MCF-7 cell line (breast cancer); assay: In vitro cytotoxicity, MCF-7; type: cell-based; conditions: Homo sapiens, MCF7; MCF-7, breast cancer cell panel; read-out: GI50
Description: as §3, §4

[9] = system: KM12 cell line (colon cancer); assay: In vitro cytotoxicity, KM12; type: cell-based; conditions: Homo sapiens
Description: as §3, §4

CNS cancer cell lines = assay: In vitro cytotoxicity, CNS panel; type: cell-based; conditions: Homo sapiens, average of six to nine different cancer cell lines, 48 h, SRB, read-out: Log GI50 (concentration in mol/L causing 50% growth inhibition) (converted)
Description: as §1, §2

[10] = system: CNS SF-295, SF-539, SNB-19 and SNB-75 cell lines; assay: In vitro cytotoxicity, CNS cell lines SF-295, SF-539, SNB-19, SNB-75; type: cell-based; conditions: Homo sapiens; range over CNS SF-295, SF-539, SNB-19 and SNB-75
Description: as §3, §4

Colon cancer cell lines = assay: In vitro cytotoxicity, colon panel; type: cell-based; conditions: Homo sapiens, average of six to nine different cancer cell lines, 48 h, SRB, read-out: Log GI50 (concentration in mol/L causing 50% growth inhibition) (converted)
Description: as §1, §2

[11] = system: Nonsmall-cell-lung cancer cell lines; assay: In vitro cytotoxicity, non-small-cell lung panel; type: cell-based; conditions: Homo sapiens, average of six to nine different cancer cell lines, 48 h, SRB, read-out: Log GI50 (concentration in mol/L causing 50% growth inhibition) (converted)
Description: as §1, §2

[12] = system: COLO 205 cell line (colon cancer); assay: In vitro cytotoxicity, COLO 205; type: cell-based; conditions: Homo sapiens; colon cancer COLO 205
Description: as §3, §4

[13] = sixty cell lines in nine cell panels

Structure (SMILES)	GI50 (Breast cancer cell lines)	GI50 (Renal cancer cell lines)	GI50 [1]	GI50 [2]	GI50 [3]	GI50 [4]	ΔTm (° C.) after incubation at 37° C. for 0 h (calf thymus (CT) DNA)	ΔTm (° C.) after incubation at 37° C. for 18 h (calf thymus (CT) DNA)	ΔTm (° C.) after incubation at 37° C. for 36 h (calf thymus (CT) DNA)	Course of ΔTm over incubation at 0 hr, 18 hr and 36 hr (calf thymus (CT) DNA)	Log10LC50 mean graph midpoint (MG_MID) (human tumour cell lines)	Log10GI50 mean graph midpoint (MG_MID) (human tumour cell lines)	GI50 (human tumour cell lines; [13])	antiproliferative activity (human tumour cell lines)	Log10TGI50 mean graph midpoint (MG_MID) (human tumour cell lines)	GI50 (CNS cancer cell lines)	GI50 (Colon cancer cell lines)	GI50 [11]	further results
COc1cc(C(=O)N2CCN(c3ncnc4ccccc34)CC2)c(N)cc1OCc1ccccc1 [Compound 8d, [2-amino-4-(benzyloxy)-5-methoxyphenyl][4-(4-quinazolinyl)piperazino]methanone]	7.08 µM	5.5 µM	4.07 µM	7.24 µM	7.24 µM	11.7 µM	1.5 °C	1.9 °C	2.7 °C	gradually increased	−4.62	−5.62	< 20 µM	nanomolar to low micromolar concentrations	−5.62	1.78 µM	5.13 µM	1.35 µM	GI50 [5]: 1.16 to 32.4 µM; GI50 [6]: 16.3 µM; GI50 [7]: 13.2 µM; GI50 [8]: 12.6 µM; GI50 [9]: 14.6 µM; GI50 [10]: 11.8 to 24.2 µM; GI50 [12]: 11.2 µM
COc1cc(C(=O)N2CCN(c3ncccn3)CC2)c(N)cc1OCc1ccccc1 [Compound 8c, [2-amino-4-(benzyloxy)-5-methoxyphenyl][4-(2-pyrimidinyl)piperazino]methanone]	6.76 µM	5.62 µM	5.5 µM	16.6 µM	1.78 µM	5.75 µM	1.4 °C	1.6 °C	2.3 °C	gradually increased	−4.47	−5.47		nanomolar to low micromolar concentrations	−5.47	5.89 µM	3.39 µM	7.24 µM	
COc1cc(C(=O)NC2c3ccccc3-c3ccccc32)c(N)cc1OCc1ccccc1 [Compound 8e, N1-(9H-9-fluorenyl)-2-amino-4-(benzyloxy)-5-methoxybenzamide]	≤ 0.01 µM	15.1 µM	4.27 µM	0.355 µM	1.78 µM	10 µM	1.9 °C	2.3 °C	2.8 °C	gradually increased	−4.19	−6.47	< 20 µM	nanomolar to low micromolar concentrations	−6.06	5.5 µM	1.7 µM	1.38 µM	GI50 (human tumour cell lines; fifty-seven cell lines in nine cancer cell panels): < 10 µM
